Values of other authors as cited in patent US20140271892A1, “PHENYLEPHRINE RESINATE PARTICLES HAVING GOOD AUC” (McNeil-PPC, Inc., priority 2013, published 2014).

Experiments:
[1] = therapeutic dose
[2] = 30 mg dose administered orally over eight hours

| excreted unchanged in the urine [1] | metabolized to m-hydroxy-phenylglycol-sulfate [2] | metabolized to m-hydroxymandelic acid [2] | metabolized to phenylephrine-glucuronide [2] | metabolized to phenylephrine-sulfate [2] | Structure (SMILES) |
| --- | --- | --- | --- | --- | --- |
| Less than 9 % of a therapeutic dose |  |  |  |  | CC(=O)Nc1ccc(O)cc1 [acetaminophen, Acetaminophen] |
|  | 6 % of the dose | 30 % of the dose | 12 % of the dose | 47 % of the dose | CNC[C@H](O)c1cccc(O)c1 [phenylephrine, (R)-1-(3-hydroxyphenyl)-2-methylaminoethanol] |
